# Reference: PubChem BioAssay (NCI)
#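 Compound exposure: 48 hours, 5 concentrations, 96-well plates. TGI marks complete inhibition of growth.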
# Experiments:
# Assay in all cases: growth of human tumour cells (NCI), 48 h
# T-47D breast = tested on: T-47D breast
# K-562 leukemia = tested on: K-562 leukemia
# NCI-H522 lung = tested on: NCI-H522 lung
# A549 NSCLC = tested on: A549 NSCLC
# IGROV1 ovarian = tested on: IGROV1 ovarian
# SNB-75 CNS = tested on: SNB-75 CNS
# NCI-H460 lung = tested on: NCI-H460 lung
# NCI-H226 lung = tested on: NCI-H226 lung
# SK-MEL-28 melanoma = tested on: SK-MEL-28 melanoma
# SF-539 CNS = tested on: SF-539 CNS
# HCT-116 colon = tested on: HCT-116 colon
# OVCAR-8 ovarian = tested on: OVCAR-8 ovarian
# BT-549 breast = tested on: BT-549 breast
# OVCAR-5 ovarian = tested on: OVCAR-5 ovarian
# SF-295 CNS = tested on: SF-295 CNS
# HS 578T breast = tested on: HS 578T breast
# LOX IMVI melanoma = tested on: LOX IMVI melanoma
# SK-MEL-2 melanoma = tested on: SK-MEL-2 melanoma
# A498 renal = tested on: A498 renal
Compound,TGI (T-47D breast) [µM],TGI (K-562 leukemia) [µM],TGI (NCI-H522 lung) [µM],TGI (A549 NSCLC) [µM],TGI (IGROV1 ovarian) [µM],TGI (SNB-75 CNS) [µM],TGI (NCI-H460 lung) [µM],TGI (NCI-H226 lung) [µM],TGI (SK-MEL-28 melanoma) [µM],TGI (SF-539 CNS) [µM],TGI (HCT-116 colon) [µM],TGI (OVCAR-8 ovarian) [µM],TGI (BT-549 breast) [µM],TGI (OVCAR-5 ovarian) [µM],TGI (SF-295 CNS) [µM],TGI (HS 578T breast) [µM],TGI (LOX IMVI melanoma) [µM],TGI (SK-MEL-2 melanoma) [µM],TGI (A498 renal) [µM]
CCOC(=O)OC1C(Br)C2CCC1(C)C2(C)C (stereo not drawn),30.3,20.1,30.2,30.1,32.8,24.6,16.6,28.1,29.3,28,20.9,31.7,31.3,31.7,29.5,32.5,18.9,–,–
Nc1cc2ncnn2c(SCC(=O)N/N=C/C(Br)=C\c2ccccc2)n1,9.35,> 100,22.9,60.1,24.6,> 100,53.5,68.6,37.6,39.2,> 100,52.3,44.1,55.2,67.7,> 100,45.6,–,–
COC(=O)c1c(O)ccc2c1c1c(n2Cc2ccccc2OC)C(=O)c2ccccc2C1=O,9.58,17.3,26.8,20.2,28.3,–,16.6,39.3,36.1,47.1,16.6,27.4,32.1,40.1,63.6,53.2,26.3,32.5,> 100
COC(=O)CN1C(=O)C2(C(=O)OC)OC1(c1ccc([N+](=O)[O-])cc1)C1C(=O)N(c3ccccc3)C(=O)C12 (stereo not drawn),> 100,–,> 100,> 100,> 100,> 100,–,> 100,> 100,> 100,> 100,> 100,> 100,> 100,> 100,> 100,> 100,> 100,> 100
CCOC(=O)c1c(N2CCCC2)[nH]c(=O)c(C(c2ccc(Cl)c([N+](=O)[O-])c2)c2c(O)c(C(=O)OCC)c(N3CCCC3)[nH]c2=O)c1O,> 100,> 100,74.1,> 100,–,34.4,> 100,> 100,> 100,41.6,> 100,33.5,51.8,> 100,> 100,> 100,49.4,–,> 100
Nc1cccc(OCC2CCCN3CCCCC23)c1 (stereo not drawn),33.8,76.1,–,45.1,–,30.8,36.3,> 100,35.7,36.5,30.4,34.4,30.9,35.2,33.8,35.2,31.4,44.9,28.2
